Data on 2 compounds can be found in article PMC8969151 (2022).

The structures appear in SMILES notation.

What all share (assay): in vitro transcription antitermination dose-response (E. coli RNAP)
Experiment [1] relates to pfl ZTP riboswitch (native, leader-less; PRA1_CbePfl_dRP1) (RNA, riboswitch) AUAUUAGAUAUUAGUCAUAUGACUGACGGAAGUGGAGUUACCACAUGAAGUAUGACUAGGCAUAUUAUCUUAUAUGCCACAAAAAGCCGACCGUCUGGGCAAAAAAAGCCUGGAUUGCGUCGGCUUUUUUAUAUGGAAAAGAUCGUCGGACUGUAGAACUCUGAACGUGUAGAUCUCGGUGGUCGCCGUAUCAUU
To be noted: 50 mM KCl, 10 mM MgCl2; 20 mM Tris-HCl pH 8.0, 37 °C, 500 μM NTPs; up to 1 mM ZMP; readthrough fold-change 3.6.

The test system of experiment [2] is pfl ZTP riboswitch with C3-SC1 leader (PRA1_Cap3_SC1_CbePfl_dRP1) (RNA, riboswitch) AUUCGGUGCUCUUCUCUUCGGCCUUCGGGCCAAAUUAGAUAUUAGUCAUAUGACUGACGGAAGUGGAGUUACCACAUGAAGUAUGACUAGGCAUAUUAUCUUAUAUGCCACAAAAAGCCGACCGUCUGGGCAAAAAAAGCCUGGAUUGCGUCGGCUUUUUUAUAUGGAAAAGAUCGUCGGACUGUAGAACUCUGAACGUGUAGAUCUCGGUGGUCGCCGUAUCAUU
To be noted: 50 mM KCl, 10 mM MgCl2; 20 mM Tris-HCl pH 8.0, 37 °C, 500 μM NTPs; up to 1 mM ZMP; readthrough fold-change 7.1.

The test system of experiment [3] is Cba ppGpp riboswitch (native, leader-less; PRA1_Cba2-2_dRP1) (RNA, riboswitch) AUAAUAAGAGAGUGUAUCUAGGGUUCCGGUCAAUAGAUGUCUGGUCCGAGCGAUACAGGAUUUCAAUCUACACUUUUAGGAAAAAAGCCUAAAGGACGAGUCUCUGCAAAGAGAUUUGUUCUUGGGCUUUAUUUUUUUAUCUUUAUUUAAGAUCGUCGGACUGUAGAACUCUGAACGUGUAGAUCUCGGUGGUCGCCGUAUCAUU
To be noted: 50 mM KCl, 10 mM MgCl2; 20 mM Tris-HCl pH 8.0, 37 °C, 500 μM NTPs, NusA only stated for leader assay; readthrough fold-change 1.9.

Experiment [4] deals with Cba ppGpp riboswitch with C3-SC1 leader (PRA1_Cap3_SC1_Cba2-2_dRP1) (RNA, riboswitch) AUUCGGUGCUCUUCUCUUCGGCCUUCGGGCCAAAAUAAGAGAGUGUAUCUAGGGUUCCGGUCAAUAGAUGUCUGGUCCGAGCGAUACAGGAUUUCAAUCUACACUUUUAGGAAAAAAGCCUAAAGGACGAGUCUCUGCAAAGAGAUUUGUUCUUGGGCUUUAUUUUUUUAUCUUUAUUUAAGAUCGUCGGACUGUAGAACUCUGAACGUGUAGAUCUCGGUGGUCGCCGUAUCAUU
The settings on record: 50 mM KCl, 10 mM MgCl2; 20 mM Tris-HCl pH 8.0, 37 °C, 500 μM NTPs, NusA; readthrough fold-change 6.0.

`NC(=O)c1ncn([C@@H]2O[C@H](COP(=O)(O)O)[C@@H](O)[C@H]2O)c1N`: the binding entry in experiment [1] and in experiment [2] was “yes” throughout.

In the case of `Nc1nc2c(ncn2[C@@H]2O[C@H](COP(=O)(O)OP(=O)(O)O)[C@@H](OP(=O)(O)OP(=O)(O)O)[C@H]2O)c(=O)[nH]1`, the binding result in experiment [3] and in experiment [4] was “yes” throughout.
